From patent US12286418B2, “Compounds and methods for treating or preventing bacterial infections” (priority 2019, dated 2025) come the findings set out here.

The target of test [1] is T1, OXA-24 (Acinetobacter baumannii, UniProt Q8RLA6).
T1 construct: His-tag (N, cleaved yes); made in house; host or cells: E. coli BL21 (DE3), pET28a
As to the kind of experiment: Inhibition of other OXA enzymes (nitrocefin reporter): OXA-24. The format is biochemical. The protocol: (§1) Compounds were tested for inhibition of a given OXA enzyme from hydrolyzing nitrocefin using a Tecan plate reader. […] A control with no compound was included in each run. For each compound concentration, the velocity of nitrocefin hydrolysis was determined at 482 nm and fit to the Morrison equation. […] The average Ki of separate experiments, each of which consisted of duplicate runs, is reported and error was quantified as the standard deviation.
(§2) The high sequence diversity of class D β-lactamases has made it difficult to find a class-wide inhibitor. The inhibition activity of CDD-97 was tested against other OXA-enzymes of varying sequence identity, to assess its spectrum of activity (Table 2). OXA-10 is regarded as the canonical OXA, however it is not a major clinical threat as it mainly hydrolyzes penicillins. OXA-58 is another carbapenemase unable to hydrolyze extended-spectrum cephalosporins like OXA-48. Both OXA-48 and OXA-58 are predominantly found in gram-negative bacteria, however OXA-48 is prevalent in the Enterobacteriaceae family (mainly Klebsiella pneumoniae), while OXA-58 is found in the Moraxellaceae family (mainly Acintobacter baumannii). While K. pneumoniae is more rampant in the clinics and most OXA-mediated carbapenem is due to OXA-48, A. baumannii nosocomial infections are a growing issue. OXA-163 is an OXA-48 like enzyme also prevalent in Enterobacteriaceae. […]

In test [2] the target is OXA-48 (Klebsiella pneumoniae, UniProt Q6XEC0). The test can be described thus: Surface plasmon resonance binding to immobilized 6x-His-OXA-48. More on the design: His-tag (N, cleaved yes); made in house; host or cells: E. coli BL21(DE3), pET28a. The settings on record: SPR. How it is done: 6×-His-OXA-48 was capture/amine-coupled on a Ni-NTA Chip at a density of ˜5000 RU. Running buffer was 10 mM HEPES pH 7.4, 150 NaCl, 50 mM NaHCO3, 0.005% Tween-20, 2% DMSO. Concentration gradients of each compound were created from 0-15 μM using OneStep Injections in at least triplicates for meropenem and CDD-97.
OXA-48, sequence (Q6XEC0 23-265, looked up): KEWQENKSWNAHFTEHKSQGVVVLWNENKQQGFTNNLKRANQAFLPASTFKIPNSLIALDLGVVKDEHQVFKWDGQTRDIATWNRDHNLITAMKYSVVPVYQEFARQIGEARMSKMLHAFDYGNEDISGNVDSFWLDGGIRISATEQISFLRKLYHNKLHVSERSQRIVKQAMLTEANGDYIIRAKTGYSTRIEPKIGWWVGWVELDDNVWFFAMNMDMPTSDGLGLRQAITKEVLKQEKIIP
Synthon-derivatives were created, without DNA tags, based on high OXA-48 enrichment and minimal NTC enrichment. The activity of these derivatives was assessed using inhibition assays with purified OXA-48. Compounds were tested for the ability to inhibit OXA-48 from hydrolyzing nitrocefin, a chromogenic β-lactam substrate routinely used in β-lactamase inhibition assays. Nitrocefin contains a conjugated ring system that is readily hydrolyzed and produces a visible color shift from yellow to red upon hydrolysis (O'Callaghan, et al., 1972, Antimicrob. Agents Chemother. 1:283-288). The rate of nitrocefin hydrolysis in the presence of a constant amount of OXA-48 and increasing concentrations of a given compound of interest was monitored at 482 nm. These rates were plotted against compound concentration to determine the inhibition constant (Ki) against OXA-48. Compounds with promising activity were also assessed for binding using surface plasmon resonance (SPR). SPR was performed using 6×-His-OXA-48 enzyme that was amine-coupled on a Ni-NTA Chip. Meropenem, which covalently binds and inhibits OXA-48, was used as a positive control.

Test [3] deals with OXA-163 (Klebsiella pneumoniae, UniProt Q6XEC0, DEL214-217/S212D). The test can be described thus: Inhibition of other OXA enzymes (nitrocefin reporter): OXA-163. Format: biochemical, Enterobacteriaceae. The protocol: as §1, §2
OXA-163, sequence (Q6XEC0 23-211, added parts left off, stated change not applied): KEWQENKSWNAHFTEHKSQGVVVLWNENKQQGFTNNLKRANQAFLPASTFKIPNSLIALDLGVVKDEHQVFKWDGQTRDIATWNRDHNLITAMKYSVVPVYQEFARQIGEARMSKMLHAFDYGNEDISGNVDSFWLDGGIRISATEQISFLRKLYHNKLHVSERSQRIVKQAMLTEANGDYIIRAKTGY

T1 sequence (Q8RLA6 entry or part of it): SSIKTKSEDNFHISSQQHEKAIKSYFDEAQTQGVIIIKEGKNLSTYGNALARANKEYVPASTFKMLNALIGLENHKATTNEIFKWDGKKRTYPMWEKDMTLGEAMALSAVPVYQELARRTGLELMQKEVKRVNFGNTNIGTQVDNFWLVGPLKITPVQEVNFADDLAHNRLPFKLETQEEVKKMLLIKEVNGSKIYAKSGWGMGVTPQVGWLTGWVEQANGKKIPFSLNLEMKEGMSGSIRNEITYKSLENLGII

A word on the Ki: it is the equilibrium dissociation constant of an inhibitor or competing ligand from its target. Lower therefore signals tighter binding. In general, Kd refers to the constant that tells how readily two partners part at equilibrium. Read a low Kd as a tighter complex. `CCOc1ccccc1N1CCN(c2ncnc(N3CCC(C(=O)O)CC3)n2)CC1` [CDD-97, 1-(4-(4-(2-ethoxyphenyl)piperazin-1-yl)-1,3,5-triazin-2-yl)piperidine-4-carboxylic acid]: the values for the Ki in test [1] and in test [3] were 14000 ± 1000 nM and 440 ± 20 nM, respectively. Also, the “KD fold lower (weaker) than that of Meropenem” value in test [2] (OXA-48) is approximately 3 fold. Further, in test [2] (immobilized His-OXA-48), the Kd amounted to 1200 ± 4 nM.
